What is called inhibition is the change of the read-out against control, counted positive when it falls.

What all share (assay): Large panel kinase profiling
What all share (assay type): biochemical
Common to all, as to settings: 1 μM test article, 1 mM ATP

The target in one experiment is T1, MYLK/MLCK (Homo sapiens, UniProt Q15746).
T1 construct: AssayQuant Technologies, Inc. (assay service)
The method in brief: (§1)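 Profiling across the panel relied on the PhosphoSens CSox-Sensor format. A compound concentration of 1 μM and an ATP level of 1 mM were used throughout.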

A further experiment addresses T2, NEK1 (Homo sapiens, UniProt Q96PY6).
T2 construct: AssayQuant Technologies, Inc. (assay service)
T2 sequence (Q96PY6 1-1258): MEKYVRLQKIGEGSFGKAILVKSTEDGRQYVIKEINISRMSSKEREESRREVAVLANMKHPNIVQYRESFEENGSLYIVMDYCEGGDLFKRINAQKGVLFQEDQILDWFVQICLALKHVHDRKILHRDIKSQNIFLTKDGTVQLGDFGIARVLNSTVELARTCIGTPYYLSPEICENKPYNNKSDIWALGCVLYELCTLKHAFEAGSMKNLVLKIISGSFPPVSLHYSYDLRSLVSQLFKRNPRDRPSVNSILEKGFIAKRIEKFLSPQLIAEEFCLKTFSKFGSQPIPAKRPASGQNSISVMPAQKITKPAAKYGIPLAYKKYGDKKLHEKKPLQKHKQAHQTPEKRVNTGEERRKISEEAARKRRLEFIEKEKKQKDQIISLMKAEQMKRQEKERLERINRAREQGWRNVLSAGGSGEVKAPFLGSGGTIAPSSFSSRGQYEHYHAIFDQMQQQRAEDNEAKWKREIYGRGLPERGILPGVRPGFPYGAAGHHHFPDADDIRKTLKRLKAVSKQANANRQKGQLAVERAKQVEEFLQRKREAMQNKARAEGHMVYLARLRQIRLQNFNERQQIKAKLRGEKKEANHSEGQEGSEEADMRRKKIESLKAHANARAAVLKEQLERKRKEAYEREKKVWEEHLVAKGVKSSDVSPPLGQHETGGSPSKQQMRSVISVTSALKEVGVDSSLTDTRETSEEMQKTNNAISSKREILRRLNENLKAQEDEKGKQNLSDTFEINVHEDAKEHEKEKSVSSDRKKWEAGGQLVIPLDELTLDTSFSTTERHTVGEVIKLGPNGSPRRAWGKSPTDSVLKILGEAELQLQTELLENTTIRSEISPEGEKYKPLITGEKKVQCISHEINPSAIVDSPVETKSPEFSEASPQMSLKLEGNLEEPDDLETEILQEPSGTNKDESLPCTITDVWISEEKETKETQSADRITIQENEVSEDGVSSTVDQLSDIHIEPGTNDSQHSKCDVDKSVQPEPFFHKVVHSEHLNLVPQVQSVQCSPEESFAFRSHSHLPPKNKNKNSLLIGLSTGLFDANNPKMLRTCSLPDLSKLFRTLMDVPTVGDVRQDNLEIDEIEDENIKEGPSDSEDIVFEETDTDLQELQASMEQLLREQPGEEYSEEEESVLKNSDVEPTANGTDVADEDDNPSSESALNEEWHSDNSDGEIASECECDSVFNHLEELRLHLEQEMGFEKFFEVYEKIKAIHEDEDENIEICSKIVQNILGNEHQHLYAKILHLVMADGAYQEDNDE
The method in brief: as §1

Another experiment concerns the target T3, EIF2AK3/PEK (Homo sapiens, UniProt Q9NZJ5).
T3 sequence (Q9NZJ5 30-1116): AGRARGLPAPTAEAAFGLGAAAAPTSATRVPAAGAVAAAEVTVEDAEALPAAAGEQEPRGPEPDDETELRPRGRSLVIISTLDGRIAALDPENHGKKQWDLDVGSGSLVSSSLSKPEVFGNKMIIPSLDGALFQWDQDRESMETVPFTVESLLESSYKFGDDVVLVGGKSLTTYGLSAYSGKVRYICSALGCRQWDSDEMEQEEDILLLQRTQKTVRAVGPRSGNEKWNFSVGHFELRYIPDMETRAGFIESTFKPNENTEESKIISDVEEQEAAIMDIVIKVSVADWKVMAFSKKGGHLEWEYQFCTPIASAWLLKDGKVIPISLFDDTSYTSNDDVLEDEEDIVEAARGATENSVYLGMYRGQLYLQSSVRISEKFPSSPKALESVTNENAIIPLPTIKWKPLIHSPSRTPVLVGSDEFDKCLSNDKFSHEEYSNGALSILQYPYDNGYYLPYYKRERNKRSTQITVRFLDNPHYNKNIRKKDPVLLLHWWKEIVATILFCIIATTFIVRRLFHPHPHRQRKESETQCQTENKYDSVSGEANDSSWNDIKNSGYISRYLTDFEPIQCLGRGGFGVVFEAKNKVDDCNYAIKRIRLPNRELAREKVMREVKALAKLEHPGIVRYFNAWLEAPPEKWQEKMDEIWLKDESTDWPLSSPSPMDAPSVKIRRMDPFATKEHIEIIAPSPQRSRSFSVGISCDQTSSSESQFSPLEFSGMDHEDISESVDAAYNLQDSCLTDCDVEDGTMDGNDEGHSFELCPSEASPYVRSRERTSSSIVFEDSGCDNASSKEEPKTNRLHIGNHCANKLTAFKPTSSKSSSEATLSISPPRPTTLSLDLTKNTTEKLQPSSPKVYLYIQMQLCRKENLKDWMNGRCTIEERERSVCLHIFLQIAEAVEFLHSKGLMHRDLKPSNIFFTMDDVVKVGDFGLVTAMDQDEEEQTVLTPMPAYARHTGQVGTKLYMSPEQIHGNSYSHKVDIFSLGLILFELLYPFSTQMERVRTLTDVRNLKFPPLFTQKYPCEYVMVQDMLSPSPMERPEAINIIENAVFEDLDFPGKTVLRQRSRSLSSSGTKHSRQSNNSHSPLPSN
The method in brief: as §1

The target in the next experiment is RPS6KA1/RSK1 (Homo sapiens, UniProt Q15418). The method in brief: as §1
RPS6KA1/RSK1, sequence (Q15418 whole entry): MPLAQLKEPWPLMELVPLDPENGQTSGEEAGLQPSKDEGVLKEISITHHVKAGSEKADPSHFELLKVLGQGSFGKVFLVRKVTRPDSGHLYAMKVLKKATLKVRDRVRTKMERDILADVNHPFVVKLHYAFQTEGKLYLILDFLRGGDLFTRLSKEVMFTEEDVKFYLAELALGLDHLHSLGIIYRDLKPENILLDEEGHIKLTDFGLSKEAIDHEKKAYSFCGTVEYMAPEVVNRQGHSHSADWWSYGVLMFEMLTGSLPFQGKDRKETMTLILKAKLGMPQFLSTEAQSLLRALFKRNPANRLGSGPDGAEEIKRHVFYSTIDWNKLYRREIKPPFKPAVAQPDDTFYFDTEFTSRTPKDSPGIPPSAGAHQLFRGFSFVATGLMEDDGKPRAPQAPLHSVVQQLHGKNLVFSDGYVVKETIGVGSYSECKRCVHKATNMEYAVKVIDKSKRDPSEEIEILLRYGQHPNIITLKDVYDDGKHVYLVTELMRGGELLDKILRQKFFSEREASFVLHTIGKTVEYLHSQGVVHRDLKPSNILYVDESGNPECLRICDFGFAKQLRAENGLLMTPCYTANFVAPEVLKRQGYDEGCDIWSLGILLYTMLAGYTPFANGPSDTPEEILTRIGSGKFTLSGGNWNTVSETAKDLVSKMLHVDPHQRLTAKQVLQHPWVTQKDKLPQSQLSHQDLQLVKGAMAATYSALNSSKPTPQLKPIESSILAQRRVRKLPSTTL
The target of another experiment is AKT2 (Homo sapiens, UniProt P31751). The method in brief:
as §1

In a further experiment the target is LTK (Homo sapiens, UniProt P29376). The method in brief:
as §1

The target of another experiment is T4, NTRK1/TRKA (Homo sapiens, UniProt P04629).
T4 construct: AssayQuant Technologies, Inc. (assay service)
T4 sequence (P04629 33-796): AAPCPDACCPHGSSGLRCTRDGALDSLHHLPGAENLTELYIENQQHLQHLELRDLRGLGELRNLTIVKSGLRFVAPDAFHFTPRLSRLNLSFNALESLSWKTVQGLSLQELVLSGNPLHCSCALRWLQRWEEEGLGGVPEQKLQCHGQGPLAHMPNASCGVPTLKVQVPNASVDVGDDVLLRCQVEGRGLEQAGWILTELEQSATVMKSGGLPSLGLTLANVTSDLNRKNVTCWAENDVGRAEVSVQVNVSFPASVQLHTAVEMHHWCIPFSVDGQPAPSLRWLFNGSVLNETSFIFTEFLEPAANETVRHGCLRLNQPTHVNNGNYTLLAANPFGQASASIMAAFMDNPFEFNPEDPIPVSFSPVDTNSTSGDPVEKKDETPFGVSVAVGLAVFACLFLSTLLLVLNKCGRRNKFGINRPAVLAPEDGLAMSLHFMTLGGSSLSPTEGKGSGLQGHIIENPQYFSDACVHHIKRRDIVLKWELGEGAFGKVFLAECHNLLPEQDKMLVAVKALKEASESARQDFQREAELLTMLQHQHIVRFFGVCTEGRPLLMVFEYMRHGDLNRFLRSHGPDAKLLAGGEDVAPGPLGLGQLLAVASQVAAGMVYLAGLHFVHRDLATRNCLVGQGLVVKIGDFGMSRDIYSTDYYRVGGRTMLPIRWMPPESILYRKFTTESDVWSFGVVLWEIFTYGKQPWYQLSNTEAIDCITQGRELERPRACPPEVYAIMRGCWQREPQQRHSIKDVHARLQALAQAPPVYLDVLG
The method in brief: as §1

AKT2, sequence (P31751 whole entry): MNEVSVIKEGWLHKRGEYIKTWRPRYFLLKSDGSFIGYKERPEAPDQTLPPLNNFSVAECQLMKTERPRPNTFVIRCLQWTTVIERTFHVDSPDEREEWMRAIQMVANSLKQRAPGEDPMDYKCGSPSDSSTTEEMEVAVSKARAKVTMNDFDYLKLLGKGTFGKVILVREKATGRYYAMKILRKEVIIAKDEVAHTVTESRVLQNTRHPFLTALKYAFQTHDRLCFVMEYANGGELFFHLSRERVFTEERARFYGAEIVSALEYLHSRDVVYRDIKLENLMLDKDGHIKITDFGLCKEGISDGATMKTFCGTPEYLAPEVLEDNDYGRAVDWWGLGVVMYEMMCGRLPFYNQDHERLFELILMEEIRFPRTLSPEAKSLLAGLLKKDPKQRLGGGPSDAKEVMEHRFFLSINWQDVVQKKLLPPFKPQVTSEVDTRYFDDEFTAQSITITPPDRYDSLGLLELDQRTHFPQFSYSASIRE
LTK, sequence (P29376 17-864, species assumed): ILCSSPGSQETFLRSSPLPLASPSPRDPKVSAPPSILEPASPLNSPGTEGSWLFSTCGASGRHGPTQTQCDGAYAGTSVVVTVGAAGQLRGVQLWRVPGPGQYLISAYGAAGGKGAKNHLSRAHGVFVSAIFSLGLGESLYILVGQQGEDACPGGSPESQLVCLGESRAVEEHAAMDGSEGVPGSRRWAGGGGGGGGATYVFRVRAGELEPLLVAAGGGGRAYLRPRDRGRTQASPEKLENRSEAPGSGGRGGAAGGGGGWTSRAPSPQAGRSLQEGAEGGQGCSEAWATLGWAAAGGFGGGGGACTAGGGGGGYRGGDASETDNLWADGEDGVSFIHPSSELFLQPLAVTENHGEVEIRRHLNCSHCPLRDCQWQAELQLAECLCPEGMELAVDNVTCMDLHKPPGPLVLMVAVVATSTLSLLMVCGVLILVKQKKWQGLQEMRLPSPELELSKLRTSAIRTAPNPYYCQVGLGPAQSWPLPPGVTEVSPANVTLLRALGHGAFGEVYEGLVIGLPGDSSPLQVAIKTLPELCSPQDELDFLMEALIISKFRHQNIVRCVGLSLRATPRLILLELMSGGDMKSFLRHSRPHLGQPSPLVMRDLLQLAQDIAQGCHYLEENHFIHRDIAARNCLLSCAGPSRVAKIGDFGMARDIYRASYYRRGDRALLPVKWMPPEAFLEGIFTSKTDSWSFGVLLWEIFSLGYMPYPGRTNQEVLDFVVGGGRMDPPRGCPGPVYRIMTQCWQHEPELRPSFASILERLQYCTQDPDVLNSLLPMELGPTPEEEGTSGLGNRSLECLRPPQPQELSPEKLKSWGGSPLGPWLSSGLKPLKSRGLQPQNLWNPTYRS

Regarding `C=CC(=O)N1CCCC(c2c(F)cc(C(N)=O)c3[nH]c4c(c23)CCCCC4)C1` (single isomer, unassigned) [Compound 5-6], the inhibition at 1 µM against MYLK/MLCK was 19.7%; against NEK1, -3.1%; against EIF2AK3/PEK, -9.2%; against RPS6KA1/RSK1 it was 6.7%; on AKT2 it was 0.5%; on LTK, 0.6%. Also, at NTRK1/TRKA, the inhibition at 1 µM is -5%.
As to `C=CC(=O)N1CCC[C@@H](c2c(F)cc(C(N)=O)c3[nH]c4c(c23)CC2(CC4)CC2)C1` [Compound 6-2, (S)-5-(1-acryloylpiperidin-3-yl)-6-fluoro-1,2,4,9-tetrahydrospiro[carbazole-3,1′-cyclopropane]-8-carboxamide], the inhibition at 1 µM is -24% against MYLK/MLCK; 7.9% against NEK1; -18.5% on EIF2AK3/PEK; -49.1% against RPS6KA1/RSK1; 0.4% at AKT2; 18.3% on LTK. Moreover, the inhibition at 1 µM on NTRK1/TRKA came out at 19.6%.
On to `C=CC(=O)N1CCC[C@@H](c2c(F)cc(C(N)=O)c3[nH]c4c(c23)CCC4)C1` [Compound 10-2, (S)-8-(1-acryloylpiperidin-3-yl)-7-fluoro-1,2,3,4-tetrahydrocyclo-penta[b]indole-5-carboxamide], for which the inhibition at 1 µM on MYLK/MLCK is -27.4%; against NEK1 it was 11.8%; against EIF2AK3/PEK it was -3.5%; at RPS6KA1/RSK1, -29.2%; against AKT2, 11.9%; against LTK, 24.4%. The inhibition at 1 µM on NTRK1/TRKA was 21.6%.

These data come from patent US20220009920A1 (GB005, Inc., priority 2020, published 2022).
